# Experiment: recombinant barcode read abundance after kanamycin selection (control-corrected) (log10(CPM+1)); higher = more efficient recombination; sequences stand for … in AGTGCAGAGAAAATCGGCCAGTTTTCTCTGCCTGCAGTCCGCATGCCGT…AGATTTATGCAGCGGACTGCCTTTCTCCCAAAGTGATAAACCGGACAGTATCATGGACCGGTTTTCCCGGTAATCCGTATTTGCAAGGTTGGTTTCACT; site = the 11-nt target
# In short: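 Pooled E. coli screen pairing targets with IS621 bridge RNA target-binding loops. Each oligo (promoter, target, barcode, J23119-driven first 104 bridge RNA bases) was Gibson-cloned into a vector with the remaining 73 bp and T7-inducible recombinase, then co-electroporated with a donor plasmid. Two replicates each were plated on chloramphenicol/ampicillin LB agar (control) or chloramphenicol/ampicillin/kanamycin with 0.1 mM IPTG. Recombination efficiency is recombinant-junction barcode counts as CPM, averaged, control-corrected, reported as log10(CPM+1).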
# 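Also: IS621 recombinase and bridge RNA in Escherichia coli cells.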
row,Sequence,recombinant barcode read abundance (log10)
1,GGTTCCTCTTGGGTTCTAACCTGTTGCCT (site GGTTCCTCTAG),1.11
2,GGTTCTCCTTGGGTTCTAACCTGTTGCCT (site AGTTCTCCTAG),0.0625
3,GGTTCTCCTTGGGTTCTAACCTGTTGCCT (site CGTTCTCCTAG),0.0451
4,GGTTCTCCTTGGGTTCTAACCTGTTGCCT (site GGTTCTCCTAG),0.288
5,GGTTCTCCTTGGGTTCTAACCTGTTGCCT (site TGTTCTCCTAG),0.0347
6,GGTTCTTCTTGGGTTCTAACCTGTTGCCT (site GATTCTTCTAG),0.12
7,GGTTCTTCTTGGGTTCTAACCTGTTGCCT (site GCTTCTTCTAG),0.0288
8,GGTTCTTCTTGGGTTCTAACCTGTTGCCT (site GGTTCTTCTAG),0.344
9,GGTTCTTCTTGGGTTCTAACCTGTTGCCT (site GTTTCTTCTAG),0.19
10,GGTTGACCTTGGGTTCTAACCTGTTGCGG (site GGTTGACCTCC),1.51
11,GGTTGACCTTGGGTTCTAACCTGTTGCGG (site GGTTGCCCTCC),0.0589
12,GGTTGACCTTGGGTTCTAACCTGTTGCGG (site GGTTGGCCTCC),0.0632
13,GGTTGACCTTGGGTTCTAACCTGTTGCGG (site GGTTGTCCTCC),0.0522
14,GGTTGCCCTTGGGTTCTAACCTGTTGCGG (site GGTTGACCTCC),0.295
15,GGTTGCCCTTGGGTTCTAACCTGTTGCGG (site GGTTGCCCTCC),0.946
16,GGTTGCCCTTGGGTTCTAACCTGTTGCGG (site GGTTGGCCTCC),0.0682
17,GGTTGCCCTTGGGTTCTAACCTGTTGCGG (site GGTTGTCCTCC),0.0903
18,GGTTGTCCTTGGGTTCTAACCTGTTGCCT (site GGTGGTCCTAG),0.253
19,GGTTGTCCTTGGGTTCTAACCTGTTGCCT (site GGTTGTCCTAG),0.328
20,GGTTGTCCTTGGGTTCTAACCTGTTGCGG (site GGTTGACCTCC),0.237
21,GGTTGTCCTTGGGTTCTAACCTGTTGCGG (site GGTTGCCCTCC),0.0684
22,GGTTGTCCTTGGGTTCTAACCTGTTGCGG (site GGTTGGCCTCC),0.109

row,Sequence,recombinant barcode read abundance (log10)
1,GGTTGTCCTTGGGTTCTAACCTGTTGCGG (site GGTTGTCCTCC),1.2
2,GGTTGTCCTTGGGTTCTAACCTGTTGCTA (site GATTGTCCTAA),0.182
3,GGTTGTCCTTGGGTTCTAACCTGTTGCTA (site GGTTGTCCTTA),0.181
4,GGTTTAGCTTGGGTTCTAACCTGTTGCTA (site GGTTTAGCTTA),0.106
5,GGTTTAGCTTGGGTTCTAACCTGTTGCTA (site TGTATAGCTTA),0.0842
6,GTAAAACCTTGGGTTCTAACCTGTTGCCT (site ATAAAACCTAG),0.281
7,GTAAAACCTTGGGTTCTAACCTGTTGCCT (site CTAAAACCTAG),0.23
8,GTAAAACCTTGGGTTCTAACCTGTTGCCT (site GTAAAACCTAG),1.06
9,GTAAAACCTTGGGTTCTAACCTGTTGCCT (site TTAAAACCTAG),0.266
10,GTAAACCCTTGGGTTCTAACCTGTTGCGG (site GTAAACCCTCC),2.33
11,GTAAACCCTTGGGTTCTAACCTGTTGCGG (site GTCAACCCTCC),0.228
12,GTAACGACTTGGGTTCTAACCTGTTGCCA (site GTAACGACTTG),1.08
13,GTAACGACTTGGGTTCTAACCTGTTGCCA (site GTGAGGACTTG),0.0765
14,GTAAGTCCTTGGGTTCTAACCTGTTGCAG (site GTAAGAACTCT),0.0477
15,GTAAGTCCTTGGGTTCTAACCTGTTGCAG (site GTAAGTCCTCT),1.97
16,GTAAGTGCTTGGGTTCTAACCTGTTGCAT (site ACCCAGTCTCC),0.174
17,GTAAGTGCTTGGGTTCTAACCTGTTGCAT (site GTAAGTGCTAT),0.829
18,GTAATCCCTTGGGTTCTAACCTGTTGCCA (site GTAATCCCTCG),0.173
19,GTAATCCCTTGGGTTCTAACCTGTTGCCA (site GTAATCCCTTG),1.32
20,GTACAGACTTGGGTTCTAACCTGTTGCCT (site GTACAGACTAG),1.43
21,GTACAGACTTGGGTTCTAACCTGTTGCCT (site GTCCAGACTAG),0.0588
22,GTACAGACTTGGGTTCTAACCTGTTGCCT (site GTGCAGACTAG),0.0183

row,Sequence,recombinant barcode read abundance (log10)
1,GTACAGACTTGGGTTCTAACCTGTTGCCT (site GTTCAGACTAG),0.078
2,GTACAGGCTTGGGTTCTAACCTGTTGCAG (site GTACAGGCTCT),0.808
3,GTACAGGCTTGGGTTCTAACCTGTTGCAG (site TGACAGGCTCT),0.178
4,GTACGCACTTGGGTTCTAACCTGTTGCCT (site AGTTAGTCTCT),0.0249
5,GTACGCACTTGGGTTCTAACCTGTTGCCT (site GTACGCACTAG),0.994
6,GTAGTAGCTTGGGTTCTAACCTGTTGCCT (site GTAGTAACTAG),0.954
7,GTAGTAGCTTGGGTTCTAACCTGTTGCCT (site GTAGTACCTAG),0.0193
8,GTAGTAGCTTGGGTTCTAACCTGTTGCCT (site GTAGTAGCTAG),2.06
9,GTAGTAGCTTGGGTTCTAACCTGTTGCCT (site GTAGTATCTAG),0.492
10,GTAGTATCTTGGGTTCTAACCTGTTGCCT (site GTAGTAACTAG),0.0297
11,GTAGTATCTTGGGTTCTAACCTGTTGCCT (site GTAGTACCTAG),0.115
12,GTAGTATCTTGGGTTCTAACCTGTTGCCT (site GTAGTAGCTAG),0.104
13,GTAGTATCTTGGGTTCTAACCTGTTGCCT (site GTAGTATCTAG),1.96
14,GTATATACTTGGGTTCTAACCTGTTGCTT (site ACGGGGCCTCG),0.0368
15,GTATATACTTGGGTTCTAACCTGTTGCTT (site GTATATACTAA),0.578
16,GTATCATCTTGGGTTCTAACCTGTTGCCT (site GTATCAACTAG),0.126
17,GTATCATCTTGGGTTCTAACCTGTTGCCT (site GTATCACCTAG),0.942
18,GTATCATCTTGGGTTCTAACCTGTTGCCT (site GTATCAGCTAG),0.0191
19,GTATCATCTTGGGTTCTAACCTGTTGCCT (site GTATCATCTAG),0.52
20,GTATCGTCTTGGGTTCTAACCTGTTGCCT (site GTATCGTCTAG),1.69
21,GTATCGTCTTGGGTTCTAACCTGTTGCCT (site GTATGGTCTAC),0.111
22,GTATCTACTTGGGTTCTAACCTGTTGCCT (site GAATCTACTAG),0

row,Sequence,recombinant barcode read abundance (log10)
1,GTATCTACTTGGGTTCTAACCTGTTGCCT (site GCATCTACTAG),0.0197
2,GTATCTACTTGGGTTCTAACCTGTTGCCT (site GGATCTACTAG),0.25
3,GTATCTACTTGGGTTCTAACCTGTTGCCT (site GTATCTACTAG),0.069
4,GTATGCCCTTGGGTTCTAACCTGTTGCTA (site GTATCCACTTA),0.273
5,GTATGCCCTTGGGTTCTAACCTGTTGCTA (site GTATGCCCTTA),1.12
6,GTATTAGCTTGGGTTCTAACCTGTTGCCG (site GAATTAGCTCC),0.128
7,GTATTAGCTTGGGTTCTAACCTGTTGCCG (site GTATTAGCTCG),1.44
8,GTCAAACCTTGGGTTCTAACCTGTTGCTG (site GTCAAACCTCA),0.974
9,GTCAAACCTTGGGTTCTAACCTGTTGCTG (site GTCAACCCTCA),0.232
10,GTCAAACCTTGGGTTCTAACCTGTTGCTG (site GTCAAGCCTCA),0.0163
11,GTCAAACCTTGGGTTCTAACCTGTTGCTG (site GTCAATCCTCA),0.0782
12,GTCAAGCCTTGGGTTCTAACCTGTTGCTG (site GTCAAACCTCA),0.0753
13,GTCAAGCCTTGGGTTCTAACCTGTTGCTG (site GTCAACCCTCA),0.184
14,GTCAAGCCTTGGGTTCTAACCTGTTGCTG (site GTCAAGCCTCA),1.23
15,GTCAAGCCTTGGGTTCTAACCTGTTGCTG (site GTCAATCCTCA),0.0295
16,GTCAAGTCTTGGGTTCTAACCTGTTGCTC (site CGACTCCCTAC),0.101
17,GTCAAGTCTTGGGTTCTAACCTGTTGCTC (site GTCAAGTCTGA),0.694
18,GTCAATTCTTGGGTTCTAACCTGTTGCCT (site GACACTTCTAG),0.109
19,GTCAATTCTTGGGTTCTAACCTGTTGCCT (site GTCAATTCTAG),0.684
20,GTCACAACTTGGGTTCTAACCTGTTGCCG (site AGGTTTGCTAA),0.056

# Reference: the supplement of paper PMC11208160
